Measurements reported in US20200222474A1, “COMPOSITIONS AND METHODS FOR INCREASING PHYTOCHEMICAL BIOAVAILABLITY AND BIOACTIVITY” (North Carolina State University, priority 2017, published 2020).

Test system: L. acidophilus NCFM
Test: RNA-seq transcriptional analysis of L. acidophilus NCFM growing on plant glycosides
Type: cell-based, Lactobacillus acidophilus
[1] = LBA0329 Putative cell division protein, COG D
[2] = LBA0466 Hypothetical protein, COG C
[3] = LBA0500 MSM operon repressor, COG K
[4] = LBA0545 Hypothetical protein, COG L
[5] = LBA0547 Putative site-specific recombinase, COG L
[6] = LBA0573 Putative transcriptional regulator, COG K
[7] = LBA0607 Putative transcriptional regulator, COG K
[8] = LBA0672 Putative phosphate starvation inducible protein stress related, COG J
[9] = LBA0753 Multi-drug-type permease, COG GEPR
[10] = LBA0886 Sugar kinase-putative transcriptional regulator, COG KG
[11] = LBA0887 Hypothetical protein, COG C
[12] = LBA0897 Putative Cro-like protein, COG K
[13] = LBA0910 L-lactate dehydrogenase, COG C
[14] = LBA1021 Putative transcriptional regulator, COG K
[15] = LBA1220 Pyridine mercuric reductase, COG C
[16] = LBA1392 Mucus binding protein precursor Mub, COG J
[17] = LBA1411 Fumarate reductase flavoprotein subunit, COG CS
[18] = LBA1436 Glycerol uptake facilitator protein, COG G
[19] = LBA1457 Galactose-1-epimerase, COG G
[20] = LBA1458 Galactose-1-phosphate uridylyltransferase, COG G
[21] = LBA1462 Beta-galactosidase, COG G
[22] = LBA1463 Lactose permease, COG G
[23] = LBA1465 Transcription repressor of beta-galactosidasegene, COG K
[24] = LBA1467 Beta-galactosidase large subunit (lactase), COG G
[25] = LBA1468 Beta-galactosidase small subunit, COG G

For O=c1ccc2cc(O[C@@H]3O[C@H](CO)[C@@H](O)[C@H](O)[C@H]3O)c(O)cc2o1 [Esculin], the “Log2 differential normalized TPM ratio compared to glucose” value (LBA0016 Fructokinase, COG KG) was 1.9, the “Log2 differential normalized TPM ratio compared to lactose” value (LBA0016 Fructokinase, COG KG) was 0.7 and the “Transcripts per million (rpm)” value (LBA0016 Fructokinase, COG KG) was 347.8 rpm. The “Log2 differential normalized TPM ratio compared to glucose” value [1] was 2.4, the “Log2 differential normalized TPM ratio compared to lactose” value [1] was 1.9 and the “Transcripts per million (rpm)” value [1] was 88.3 rpm. The “Log2 differential normalized TPM ratio compared to glucose” value [2] was 2, the “Log2 differential normalized TPM ratio compared to lactose” value [2] was 0.5 and the “Transcripts per million (rpm)” value [2] was 408.4 rpm. For the same compound, the “Log2 differential normalized TPM ratio compared to glucose” value [3] was 0.5, the “Log2 differential normalized TPM ratio compared to lactose” value [3] was −1.1 and the “Transcripts per million (rpm)” value [3] was 78.4 rpm. The “Log2 differential normalized TPM ratio compared to glucose” value [4] was 1.9, the “Log2 differential normalized TPM ratio compared to lactose” value [4] was −0.1 and the “Transcripts per million (rpm)” value [4] was 286.5 rpm. For the same compound, the “Log2 differential normalized TPM ratio compared to glucose” value [5] was 2.1, the “Log2 differential normalized TPM ratio compared to lactose” value [5] was 0.4 and the “Transcripts per million (rpm)” value [5] was 50.6 rpm. The “Log2 differential normalized TPM ratio compared to glucose” value [6] was 2.6, the “Log2 differential normalized TPM ratio compared to lactose” value [6] was 2.5 and the “Transcripts per million (rpm)” value [6] was 592 rpm. For the same compound, the “Log2 differential normalized TPM ratio compared to glucose” value [7] was 1.8, the “Log2 differential normalized TPM ratio compared to lactose” value [7] was 1.4 and the “Transcripts per million (rpm)” value [7] was 179.3 rpm. For the same compound, the “Log2 differential normalized TPM ratio compared to glucose” value [8] was 1.8, the “Log2 differential normalized TPM ratio compared to lactose” value [8] was 0.9 and the “Transcripts per million (rpm)” value [8] was 5745.2 rpm. The “Log2 differential normalized TPM ratio compared to glucose” value [9] was 1.6, the “Log2 differential normalized TPM ratio compared to lactose” value [9] was 2.3 and the “Transcripts per million (rpm)” value [9] was 155 rpm. The “Log2 differential normalized TPM ratio compared to glucose” value [10] was 1.2, the “Log2 differential normalized TPM ratio compared to lactose” value [10] was 0.9 and the “Transcripts per million (rpm)” value [10] was 15.5 rpm. The “Log2 differential normalized TPM ratio compared to glucose” value [11] was 1.3, the “Log2 differential normalized TPM ratio compared to lactose” value [11] was 0.1 and the “Transcripts per million (rpm)” value [11] was 151.3 rpm. For the same compound, the “Log2 differential normalized TPM ratio compared to glucose” value [12] was −0.9, the “Log2 differential normalized TPM ratio compared to lactose” value [12] was 1.5 and the “Transcripts per million (rpm)” value [12] was 1.5 rpm. The “Log2 differential normalized TPM ratio compared to glucose” value [13] was 2.7, the “Log2 differential normalized TPM ratio compared to lactose” value [13] was 1.7 and the “Transcripts per million (rpm)” value [13] was 845.1 rpm. The “Log2 differential normalized TPM ratio compared to glucose” value [14] was 2.4, the “Log2 differential normalized TPM ratio compared to lactose” value [14] was 2 and the “Transcripts per million (rpm)” value [14] was 797.3 rpm. The “Log2 differential normalized TPM ratio compared to glucose” value [15] was 2, the “Log2 differential normalized TPM ratio compared to lactose” value [15] was 1.1 and the “Transcripts per million (rpm)” value [15] was 851.3 rpm. For the same compound, the “Log2 differential normalized TPM ratio compared to glucose” value [16] was 2.3, the “Log2 differential normalized TPM ratio compared to lactose” value [16] was 2.5 and the “Transcripts per million (rpm)” value [16] was 537 rpm. For the same compound, the “Log2 differential normalized TPM ratio compared to glucose” value [17] was 1.7, the “Log2 differential normalized TPM ratio compared to lactose” value [17] was 0.6 and the “Transcripts per million (rpm)” value [17] was 7.3 rpm. For the same compound, the “Log2 differential normalized TPM ratio compared to glucose” value [18] was 4.9, the “Log2 differential normalized TPM ratio compared to lactose” value [18] was 1.1 and the “Transcripts per million (rpm)” value [18] was 84.9 rpm. For the same compound, the “Log2 differential normalized TPM ratio compared to glucose” value [19] was 3.2, the “Log2 differential normalized TPM ratio compared to lactose” value [19] was −2.4 and the “Transcripts per million (rpm)” value [19] was 144.7 rpm. The “Log2 differential normalized TPM ratio compared to glucose” value [20] was 3.4, the “Log2 differential normalized TPM ratio compared to lactose” value [20] was −2.3 and the “Transcripts per million (rpm)” value [20] was 144 rpm. The “Log2 differential normalized TPM ratio compared to glucose” value (LBA1459 Galactokinase, COG G) was 2.3, the “Log2 differential normalized TPM ratio compared to lactose” value (LBA1459 Galactokinase, COG G) was −2.4 and the “Transcripts per million (rpm)” value (LBA1459 Galactokinase, COG G) was 123.5 rpm. The “Log2 differential normalized TPM ratio compared to glucose” value [21] was −0.5, the “Log2 differential normalized TPM ratio compared to lactose” value [21] was −6.5 and the “Transcripts per million (rpm)” value [21] was 13 rpm. The “Log2 differential normalized TPM ratio compared to glucose” value [22] was −0.3, the “Log2 differential normalized TPM ratio compared to lactose” value [22] was −5 and the “Transcripts per million (rpm)” value [22] was 47.8 rpm. For the same compound, the “Log2 differential normalized TPM ratio compared to glucose” value (LBA1464 Transposase, COG L) was −1, the “Log2 differential normalized TPM ratio compared to lactose” value (LBA1464 Transposase, COG L) was −3.4 and the “Transcripts per million (rpm)” value (LBA1464 Transposase, COG L) was 94.4 rpm. For the same compound, the “Log2 differential normalized TPM ratio compared to glucose” value [23] was −0.3, the “Log2 differential normalized TPM ratio compared to lactose” value [23] was −3.4 and the “Transcripts per million (rpm)” value [23] was 47.3 rpm. For the same compound, the “Log2 differential normalized TPM ratio compared to glucose” value [24] was 2.2, the “Log2 differential normalized TPM ratio compared to lactose” value [24] was −6.7 and the “Transcripts per million (rpm)” value [24] was 24.1 rpm. The “Log2 differential normalized TPM ratio compared to glucose” value [25] was 0.8 and the “Log2 differential normalized TPM ratio compared to lactose” value [25] was −5.6.
